Reference: US11066378B2, “Caffeic acid derivatives for anti-angiogenesis” (Taipei Medical University, priority 2015, dated 2021)

Tested on: HUVECs
Test: Cell viability assay (MTT assay), growth inhibition of HUVECs
Assay type: cell-based, human
Conditions: Homo sapiens, HUVEC, 24 h, MTT assay, 24 h treatment, 5% FBS-stimulated HUVECs
Method: Human umbilical vein endothelial cells (HUVECs; #8000) were purchased from the ScienCell Research Laboratories (San Diego, Calif., USA). The cells were seeded on gelatin-coated culture dishes and grown in the commercial endothelial cell medium (#1001; ScienCell) containing 5% fetal bovine serum (FBS; #0025; ScienCell), 30 μg/mL endothelial cell growth supplements (ECGS; #1052; ScienCell), 100 units/mL penicillin G, and 100 μg/mL streptomycin sulfates (#0503; ScienCell). Cells at passage 3-6 were used for experiments. Mouse Lewis lung carcinoma cell line 1 (LLC1; #60050) was bought from the Food Industry Research and Development Institute (Hsinchu, Taiwan) and cultured in Gibco® Dulbecco's modified Eagle's medium (#12800-017; Invitrogen, Carlsbad, Calif., USA) supplemented with 10% FBS (HyClone, Logan, Utah, USA), 4 mM L-glutamine, 1.5 g/L sodium bicarbonate, 100 units/mL penicillin G, and 100 μg/mL streptomycin. All cells were incubated in a humidified 5% CO2 atmosphere at 37° C. and culture media was changed every 2˜3 days.
The experiments were performed according to our previous study with minor modifications (Pan et al., 2010). Briefly, the cells (2×10^4 cells/well) were seeded and grown under normal culture medium for 24 h. After another 24 h of starvation with 0.5% FBS, the cells were treated with several concentrations (1, 2, 4, 8, and 16 μM) of the tested compounds for 24 h and then incubated with 5 mg/mL of MTT (3-[4,5-dimethyl thiazol-2-yl]-2,5-diphenyl tetrazolium bromide) for 2 h. After that, the cells were washed with 1×PBS and then dimethyl sulfoxide (DMSO) was added to each well. Absorbance values at 570 nm were determined for each well using 650 nm as the reference wavelength. The absorbance of the control group (treated with 5% or 10% FBS alone) was defined as 100%.

COc1cc([C@H]2Oc3c(OC)cc(/C=C/C=O)cc3[C@@H]2C)ccc1O [K20A] and COC(=O)/C=C/c1cc(OC)c2c(c1)[C@H](C(=O)OC)[C@@H](c1ccc(O)c(OC)c1)O2 [K20L] are within 1.5-fold of each other in GI50: 24 µM for the first, 32 µM for the second.

First: COC(=O)/C=C/c1cc(OC(C)=O)c2oc(-c3ccc(OC(C)=O)c(OC(C)=O)c3)c(C(=O)OC)c2c1 [K20B]
Second: COC(=O)/C=C/c1ccc(O)c(O)c1 [Methyl caffeate, reference compound]
The GI50 of the first is 3.3-fold lower: 24 µM for the first, 80 µM for the second.
